“Also recorded” adds a separate entry of the source. Read-outs that look alike come from different tables or passages of the source.
Assay: Single oral dose plasma pharmacokinetics in fasted and fed healthy subjects (food effect, ethnicity)
Assay type: in vivo, human
Settings: for AUC % extrap: both fed and fasted conditions; for AUC(0-t) / AUC(0-inf) / Cmax / Tmax / Vd/F / half-life: both sexes, human, plasma, po; for Vd/F: read-out: Vz/F, GeoMean; for half-life: read-out: t½, GeoMean (converted)
Protocol: Compound 1 pharmacokinetics were analyzed in healthy subjects administered Compound 1 in a fasted state. A subject was considered fasted if the subject fasted overnight for at least 10 hours and water was permitted ad libitum except for 1 hour before and after drug administration. For fasted subjects, Compound 1 was administered with at least 8 ounces (240 mL) of water. Compound 1 pharmacokinetics were also analyzed in healthy subjects administered Compound 1 in a fed state. A subject was considered fed after consuming a high-fat meal 30 minutes prior to drug administration, and the meal was finished at least 5 minutes prior to drug administration. For both fasted and fed subjects, no food was permitted for at least 4 hours post-dose and water was permitted starting at 1 hour post-dose.
Subjects were healthy, non-smoking male and female Caucasian/non-Asian or Japanese participants 18 to 55 years of age with a BMI between […].
In Part 1 of the study, analysis was performed to compare 1000 mg Compound 1 in fed and fasted states. A dose of 1000 mg of Compound 1 consisted of two 500 mg tablets administered as a single oral dose. The analysis of Part 1 was performed at two separate time points in two different schemes (1A and 1B).
In scheme 1A, at period 1, Compound 1 analyzed in healthy subjects administered 1000 mg Compound 1 (n=3) in a fed state. Following a washout period of 7-9 days, these subjects were then administered 1000 mg Compound 1 in a fasted state.
Separately, in scheme 1B, at period 1, Compound 1 was analyzed in healthy subjects administered 1000 mg Compound 1 (n=3) in a fasted state. Following a washout period of 7-9 days, these subjects were then administered 1000 mg Compound 1 in a fed state.
In Part 2 of the study, analysis was performed to compare 2000 mg Compound 1 in fed and fasted states and also to compared ethnicity of Caucasian/non-Asian subjects and Japanese subjects. A dose of 2000 mg of Compound 1 consisted of four 500 mg tablets administered as a single oral dose.
For Caucasian/non-Asian subjects (n=20) the analysis was performed at two separate time points in two different schemes (2A and 2B). During scheme 2A, at period 1, Compound 1 was analyzed in subjects administered 2000 mg Compound 1 (n=10) in a fed state. Following a washout period of 7-9 days, at period 2, these subjects were then administered 2000 mg Compound 1 in a fasted state. Separately in scheme 2B, at period 1, Compound 1 was analyzed in subjects administered 2000 mg Compound 1 (n=10) in a fasted state. Following a washout period of 7-9 days, at period 2, these subjects were then administered 2000 mg Compound 1 in a fed state.
For Japanese subjects (n=6), Compound 1 pharmacokinetics were analyzed in subjects administered 2000 mg Compound 1 in a fasted state.
Blood for the analysis of study drug (Compound 1) and metabolite (M1) were collected.
Various pharmacokinetic (PK) parameters were determined for each subject. (Tables 9-12 and FIGS. 23-28).
Statistical analysis of Compound 1 plasma PK parameters were evaluated for food effects for Part 1 (Table 11) and Part 2 (Table 12). The log-transformed PK parameters were analyzed using an analysis of variance model with treatment (fed/fasted condition) and period as fixed effects and participant as a random effect.

[1] = 2000 mg oral, Fasted, Caucasian/Non-Asian
[2] = 2000 mg oral, Fed, Caucasian/Non-Asian
[3] = 1000 mg, 1000 mg oral, Fasted (Part 1)
[4] = 1000 mg, 1000 mg oral, Fed (Part 1)
[5] = 2000 mg, 2000 mg oral, Fasted, Caucasian/Non-Asian
[6] = 2000 mg, 2000 mg oral, Fasted, Japanese
[7] = 2000 mg, 2000 mg oral, Fed, Caucasian/Non-Asian

## CNC(=O)c1ccc(NCC#Cc2cc3c(N[C@@H]4CCN(C)C[C@@H]4F)cccc3n2CC(F)(F)F)c(OC)c1 [Compound 1, 4-((3-(4-(((3S,4R)-3-fluoro-1-methylpiperidin-4-yl)amino)-1-(2,2,2-trifluoroethyl)-1H-indol-2-yl)prop-2-yn-1-yl)amino)-3-methoxy-N-methylbenzamide]
1000 mg (Part 1)
  Plasma CL/F and Vz/F, fasted vs fed: slightly higher in the fasted condition
1000 mg and 2000 mg doses
  Mean plasma concentrations, fed vs fasted: higher for Caucasian/non-Asian participants under the fed condition compared to the fasted condition
1000 mg oral (Part 1)
  AUC0-inf, % Ratio (Fed/Fasted): 120.25%
  AUC0-last, % Ratio (Fed/Fasted): 120.21%
  Cmax, % Ratio (Fed/Fasted): 121.75%
1000 mg oral, Fasted (Part 1)
  AUC% extrap, GeoMean: 1.61%
  CL/F, GeoMean: 6.67 L/h
  λz, GeoMean: 0.0450 h⁻¹
1000 mg oral, Fed (Part 1)
  AUC0-last, GeoMean: 177 µg·h/mL
  AUC% extrap, GeoMean: 1.61%
  CL/F, GeoMean: 5.55 L/h
  λz, GeoMean: 0.0438 h⁻¹
1000 mg single dose
  increase of peak exposure (Cmax) with food (high-fat meal) vs fasted: approximately 22%
  increase of systemic exposure (AUC0-inf and AUC0-last) with food (high-fat meal) vs fasted: approximately 20%
1000 mg
  AUC % extrap: less than 5%
2000 mg oral (Part 2)
  AUC0-inf, % Ratio (Fed/Fasted): 178.74%
  AUC0-last, % Ratio (Fed/Fasted): 172.94%
  Cmax, % Ratio (Fed/Fasted): 183.82%
[1]
  AUC% extrap, GeoMean: 3.42%
  CL/F, GeoMean: 7.71 L/h
  λz, GeoMean: 0.0348 h⁻¹
2000 mg oral, Fasted, Japanese
  AUC0-last, GeoMean: 326 µg·h/mL
  AUC% extrap, GeoMean: 2.13%
  CL/F, GeoMean: 5.92 L/h
  λz, GeoMean: 0.0398 h⁻¹
[2]
  AUC0-last, GeoMean: 448 µg·h/mL
  AUC% extrap, GeoMean: 4.74%
  CL/F, GeoMean: 4.18 L/h
  λz, GeoMean: 0.0306 h⁻¹
2000 mg single dose
  increase of AUC0-inf with food (high-fat meal) vs fasted: 79%
  increase of AUC0-last with food (high-fat meal) vs fasted: 73%
  increase of peak exposure (Cmax) with food (high-fat meal) vs fasted: approximately 84%
2000 mg, Caucasian/non-Asian (Part 2)
  Plasma CL/F and Vz/F, fasted vs fed: slightly higher in the fasted condition
2000 mg, Caucasian/non-Asian
  AUC % extrap: less than 17%
2000 mg, fasted
  Mean plasma concentrations, Japanese vs Caucasian/non-Asian: higher in Japanese participants compared to Caucasian/non-Asian participants
  Plasma CL/F and Vz/F, Japanese vs Caucasian/non-Asian: numerically lower for Japanese participants
  peak exposure (Cmax) and systemic exposure (AUC), Japanese vs Caucasian/non-Asian: numerically higher in Japanese participants
Caucasian/non-Asian participants
  maximum exposure (Cmax) and systemic exposure (AUC), fed vs fasted: higher under fed conditions (high-fat meal) compared to fasted conditions
1000 mg, 1000 mg oral, Fasted (Part 1), read-out: AUC0-24, GeoMean
  AUC(0-t): 97.9 µg·h/mL
1000 mg, 1000 mg oral, Fasted (Part 1), read-out: AUC0-96, GeoMean
  AUC(0-t): 148 µg·h/mL
1000 mg, 1000 mg oral, Fasted (Part 1), read-out: AUC0-inf, GeoMean
  AUC(0-inf): 150 µg·h/mL
1000 mg, 1000 mg oral, Fasted (Part 1), read-out: AUC0-inf, Geometric Mean (analysis of variance model)
  AUC(0-inf): 150 µg·h/mL
1000 mg, 1000 mg oral, Fasted (Part 1), read-out: AUC0-last, GeoMean
  AUC(0-t): 147 µg·h/mL
1000 mg, 1000 mg oral, Fasted (Part 1), read-out: AUC0-last, Geometric Mean (analysis of variance model)
  AUC(0-t): 147 µg·h/mL
1000 mg, 1000 mg oral, Fasted (Part 1), read-out: Cmax, GeoMean
  Cmax: 8690 ng/mL
1000 mg, 1000 mg oral, Fasted (Part 1), read-out: Cmax, Geometric Mean (analysis of variance model)
  Cmax: 8690 ng/mL
1000 mg, 1000 mg oral, Fasted (Part 1), read-out: Tmax, Median
  Tmax: 2.27 h
1000 mg, 1000 mg oral, Fasted (Part 1), read-out: Tmax, Minimum, Maximum
  Tmax: 1.54 to 2.51 h
[3]
  Vd/F: 148 L
  half-life: 924 min
1000 mg, 1000 mg oral, Fed (Part 1), read-out: AUC0-24, GeoMean
  AUC(0-t): 119 µg·h/mL
1000 mg, 1000 mg oral, Fed (Part 1), read-out: AUC0-96, GeoMean
  AUC(0-t): 177 µg·h/mL
1000 mg, 1000 mg oral, Fed (Part 1), read-out: AUC0-inf, GeoMean
  AUC(0-inf): 180 µg·h/mL
1000 mg, 1000 mg oral, Fed (Part 1), read-out: AUC0-inf, Geometric Mean (analysis of variance model)
  AUC(0-inf): 180 µg·h/mL
1000 mg, 1000 mg oral, Fed (Part 1), read-out: AUC0-last, GeoMean
  AUC(0-t): 177 µg·h/mL
1000 mg, 1000 mg oral, Fed (Part 1), read-out: AUC0-last, Geometric Mean (analysis of variance model)
  AUC(0-t): 177 µg·h/mL
1000 mg, 1000 mg oral, Fed (Part 1), read-out: Cmax, GeoMean
  Cmax: 10600 ng/mL
1000 mg, 1000 mg oral, Fed (Part 1), read-out: Cmax, Geometric Mean (analysis of variance model)
  Cmax: 10600 ng/mL
1000 mg, 1000 mg oral, Fed (Part 1), read-out: Tmax, Median
  Tmax: 3.25 h
1000 mg, 1000 mg oral, Fed (Part 1), read-out: Tmax, Minimum, Maximum
  Tmax: 1.51 to 5.01 h
[4]
  Vd/F: 127 L
  half-life: 948 min
2000 mg, 2000 mg oral, Fasted (Part 2), read-out: AUC0-inf, Geometric Mean (analysis of variance model)
  AUC(0-inf): 260 µg·h/mL
2000 mg, 2000 mg oral, Fasted (Part 2), read-out: AUC0-last, Geometric Mean (analysis of variance model)
  AUC(0-t): 259 µg·h/mL
2000 mg, 2000 mg oral, Fasted (Part 2), read-out: Cmax, Geometric Mean (analysis of variance model)
  Cmax: 10400 ng/mL
2000 mg, 2000 mg oral, Fasted, Caucasian/Non-Asian, read-out: AUC0-24, GeoMean
  AUC(0-t): 138 µg·h/mL
2000 mg, 2000 mg oral, Fasted, Caucasian/Non-Asian, read-out: AUC0-96, GeoMean
  AUC(0-t): 255 µg·h/mL
2000 mg, 2000 mg oral, Fasted, Caucasian/Non-Asian, read-out: AUC0-inf, GeoMean
  AUC(0-inf): 259 µg·h/mL
2000 mg, 2000 mg oral, Fasted, Caucasian/Non-Asian, read-out: AUC0-last, GeoMean
  AUC(0-t): 254 µg·h/mL
2000 mg, 2000 mg oral, Fasted, Caucasian/Non-Asian, read-out: Cmax, GeoMean
  Cmax: 10300 ng/mL
2000 mg, 2000 mg oral, Fasted, Caucasian/Non-Asian, read-out: Tmax, Median
  Tmax: 2.52 h
2000 mg, 2000 mg oral, Fasted, Caucasian/Non-Asian, read-out: Tmax, Minimum, Maximum
  Tmax: 1.03 to 5.94 h
[5]
  Vd/F: 212 L
  half-life: 1190 min
2000 mg, 2000 mg oral, Fasted, Japanese, read-out: AUC0-24, GeoMean
  AUC(0-t): 193 µg·h/mL
2000 mg, 2000 mg oral, Fasted, Japanese, read-out: AUC0-96, GeoMean
  AUC(0-t): 326 µg·h/mL
2000 mg, 2000 mg oral, Fasted, Japanese, read-out: AUC0-inf, GeoMean
  AUC(0-inf): 338 µg·h/mL
2000 mg, 2000 mg oral, Fasted, Japanese, read-out: AUC0-last, GeoMean
  AUC(0-t): 326 µg·h/mL
2000 mg, 2000 mg oral, Fasted, Japanese, read-out: Cmax, GeoMean
  Cmax: 14700 ng/mL
2000 mg, 2000 mg oral, Fasted, Japanese, read-out: Tmax, Median
  Tmax: 3.94 h
[6]
  Vd/F: 149 L
  half-life: 1040 min
2000 mg, 2000 mg oral, Fed (Part 2), read-out: AUC0-inf, Geometric Mean (analysis of variance model)
  AUC(0-inf): 465 µg·h/mL
2000 mg, 2000 mg oral, Fed (Part 2), read-out: AUC0-last, Geometric Mean (analysis of variance model)
  AUC(0-t): 449 µg·h/mL
2000 mg, 2000 mg oral, Fed (Part 2), read-out: Cmax, Geometric Mean (analysis of variance model)
  Cmax: 19100 ng/mL
2000 mg, 2000 mg oral, Fed, Caucasian/Non-Asian, read-out: AUC0-24, GeoMean
  AUC(0-t): 250 µg·h/mL
2000 mg, 2000 mg oral, Fed, Caucasian/Non-Asian, read-out: AUC0-96, GeoMean
  AUC(0-t): 448 µg·h/mL
2000 mg, 2000 mg oral, Fed, Caucasian/Non-Asian, read-out: AUC0-inf, GeoMean
  AUC(0-inf): 479 µg·h/mL
2000 mg, 2000 mg oral, Fed, Caucasian/Non-Asian, read-out: AUC0-last, GeoMean
  AUC(0-t): 448 µg·h/mL
2000 mg, 2000 mg oral, Fed, Caucasian/Non-Asian, read-out: Cmax, GeoMean
  Cmax: 19000 ng/mL
2000 mg, 2000 mg oral, Fed, Caucasian/Non-Asian, read-out: Tmax, Median
  Tmax: 4.03 h
2000 mg, 2000 mg oral, Fed, Caucasian/Non-Asian, read-out: Tmax, Minimum, Maximum
  Tmax: 2.11 to 8.08 h
[7]
  Vd/F: 137 L
  half-life: 1360 min
Single oral doses
  plasma concentration-time profile: reached the maximum peak rapidly and declined roughly in a bi-exponential manner; also recorded: rapidly absorbed

From patent US20250319063A1, “METHODS AND COMPOUNDS FOR RESTORING MUTANT P53 FUNCTION” (PMV PHARMACEUTICALS, INC., priority 2022, published 2025)
